Laboratory results taken from patent US6514994B2, “Levobupivacaine and its use” (Darwin Discovery, Ltd., priority 1997, dated 2003).

What was measured:
[1] = tested on: patients undergoing major abdominal surgery; assay: Epidural anaesthesia in patients undergoing major abdominal surgery; assay type: in vivo, human; conditions: 0.75%
Description: This study compared the efficacy, safety and pharmacokinetics of 0.75% levobupivacaine with 0.75% bupivacaine in 58 patients undergoing major abdominal surgery under epidural anaesthesia. Although 0.75% bupivacaine is no longer used in some situations (obstetrics) and 0.5% concentrations are usually adequate for lower extremity surgery, 0.75% is preferential for abdominal surgery because of the enhancement of motor blockade. Onset of sensory anaesthesia to T10 (mean˜15 minutes), time to peak block height (T5, 25-30 min), and abdominal muscle relaxation (RAM score 3-5) were equivalent between the groups. Duration of total sensory anaesthesia was statistically longer with 0.75% levobupivacaine (levobupivacaine—551 min, racemic bupivacaine—506 min).

[2] = tested on: Pentobarbital-Anesthetized Swine; assay: Intracoronary (LAD) injection cardiotoxicity model, lethal dose and QRS prolongation; assay type: in vivo; conditions: for lethal dose, median / lethal dose, range: LAD injection, death by VF; for lethal dose higher than that of B: injected into LAD or RCA
Description: Reiz et al, Acta Anaesthesiol. Scand. (1989) 33:93-98, reports that in vivo cardiotoxicity of local anaesthetics can be evaluated without interference by central mechanisms in a highly reproducible model (Pentobarbital-Anesthetized Swine) where the drug is injected directly into a coronary artery. When local anesthetics are injected in the left anterior descending artery (LAD), death occurs consistently by ventricular fibrillation (VF). The aim of this study was to determine the lethal dose of each of the local anesthetics levobupivacaine (L), bupivacaine (B) and ropivacaine (R) as well as to compare their respective effects on the QRS interval of the precordial ECG.
A total of 27 animals were randomized to receive a dose response injection of L, B or R into the LAD. A blinded randomized protocol was used. All calculations and exclusions were made prior to disclosure of treatment. The doses of each agent were 0.375, 0.75, 1.5, 3.0, 4.0 mg etc., in increments of 1 mg till death occurred. Each dose was made up in a volume of 3 ml plus the dead space of the catheter (1.2 ml), injected over 10 sec. The time between doses was 5 min, or longer, if ECG, blood pressure or heart rate had not returned to pre-injection controls. A complete 12-lead ECG was recorded on optical disk for later analysis. Statistical analysis was by ANOVA, Dunnett's and the Mann-Whitney-U test. Power analysis was performed (0.85 to 1.00).
One animal died of myocardial infarction following acute embolization into the LAD. […] Of the animals injected into the LAD, 7 had received L, 7 B and 6 R. All deaths following LAD injection were by VF and deaths following RCA injection were by A-V dissociation. […] The difference between L and R at 50 msec prolongation was insignificant.

[3] = tested on: adult patients, axillary brachial plexus; conditions: by comparison; cited from earlier work
[4] = tested on: guinea-pig papillary muscle; assay: Developed force and action potential parameters in papillary muscle; conditions: for effect on developed force and action potential parameters at steady-state: equimolar concentrations
Description: Contraction was measured in mycocytes and papillary muscle isolated from guinea-pig ventricle and pectinate muscle isolated from human right atrial appendage. Myocytes were isolated from guinea-pig left ventricle by an enzyme digestion procedure and placed in a chamber on the stage of an inverted microscope. Cells were superfused with Krebs-Henseleit buffer (KHB) at 30° C. and field stimulated at 1.0 Hz. Cell shortening was measured with a video camera and edge-etection system. Papillary and pectinate muscles were placed in KHB at 37° C. and field stimulated at 1.0 Hz. Isometric tension was recorded at maximum developed force (Lmax). Electrophysical parameters were recorded in papillary muscles superfused with KSB at 37° C. and stimulated at 1.0 Hz. Standard action potential parameters were recorded, i.e. maximum rate of rise of membrane potential (Vmax); action potential amplitude (APA); and action potential duration to 90% repolarisation (APD90). Developed force was measured by recording isometric tension in muscles stretched to 90% of Lmax.

[5] = tested on: conscious, previously instrumented, adult sheep; assay: Electrocardiological effects of i.v. infusion in conscious sheep; assay type: in vivo; conditions: for deaths: 150, 150 and 200 mg infused over 3 min, ventricular tachycardia and fibrillation; for convulsive dose (inducing ventricular arrhythmias): sheep, 3 min
Description: The electrocardiological effects of bupivacaine and levobupivacaine were compared, in two groups of conscious, previously instrumented, adult sheep. Two cohorts of 7 animals were infused over 1 min with 6.25, 12.5, 18.75, 25 and 37.5 mg levobupivacaine and 12.5, 25 and 37.5 mg bupivacaine or over 3 min with 37.5, 50, 75, 100, 150 and 200 mg levobupivacaine and 37.5, 75, 100, 150 and 200 mg bupivacaine. […] Both drugs, at convulsive doses (75 mg bupivacaine, 100 mg levobupivacaine), induced ventricular arrhythmias; however, there was a higher threshold of toxicity with levobupivacaine. […] Inasmuch as levobupivacaine is reported to produce at least equivalent neural blockade to bupivacaine, it therefore offers a great margin of clinical safety.
FIGS. 1 and 2 of the accompanying drawings show baseline record of ECG (left), S-T segment change (centre) and multiform ventricular tachycardia (right) after i.v. infusion (40 ml, 3 min) of 100 mg bupivacaine and then of 200 mg levobupivacaine, in the same sheep.

[6] = tested on: adult patients, axillary brachial plexus; assay: Axillary brachial plexus neural blockade in patients with distal upper extremity orthopaedic surgery; assay type: in vivo, human
Description: 20 adult patients scheduled for distal upper extremity orthopaedic surgical procedures with axillary brachial plexus neural blockade were studied. Patients received an axillaryblock using 50 ml of 0.5% levobupivacaine without epinephrine. Transarterial and/or nerve stimulator techniques were used to identify injection into the brachial plexus sheath. If after 10 min patients required supplemental local anaesthetic to produce anaesthesia in a single peripheral nerve distribution, an additional 10 ml of 0.5% levobupivacaine could be administered as a single peripheral nerve-block at the axilla or wrist. Patients were monitored for onset and duration of sensory and motor block using a 0-2 scale (0=no block, 1=partial block, 2=complete block) for each major nerve distribution (median, musculocutaneous, radius, ulnar). Time to onset of adequate anaesthesia for surgery, time to first request for post-operative analgesics, as well as any subjective or objective signs of local anaesthetic toxicity were also collected. Blood samples for PK analysis were drawn from 10 patients.

[7] = tested on: myocytes isolated from guinea-pig left ventricle; assay: Cell shortening (contraction) in isolated ventricular myocytes; assay type: cell-based; conditions: cardiac myocytes, P<0.05
Description: Contraction was measured in mycocytes and papillary muscle isolated from guinea-pig ventricle and pectinate muscle isolated from human right atrial appendage.
Myocytes were isolated from guinea-pig left ventricle by an enzyme digestion procedure and placed in a chamber on the stage of an inverted microscope. Cells were superfused with Krebs-Henseleit buffer (KHB) at 30° C. and field stimulated at 1.0 Hz. Cell shortening was measured with a video camera and edge-etection system. Papillary and pectinate muscles were placed in KHB at 37° C. and field stimulated at 1.0 Hz. Isometric tension was recorded at maximum developed force (Lmax).
The mean drug concentration producing a 50% reduction (CI-50) in cell shortening was calculated from cumulative dose-response curves. All data were analysed by an unpaired t-test (for control data comparison) or one-way ANOVA (for comparison between drug groups), assuming a Gaussian distribution.

[8] = Plasma kinetics after administration (summary statement); assay type: in vivo
[9] = tested on: sensory block; conditions: 0.25%; cited from earlier work

CCCCN1CCCCC1C(=O)Nc1c(C)cccc1C (racemic) [bupivacaine]
duration of total sensory anaesthesia [1]: 506 min | onset of sensory anaesthesia to T10, mean [1]: ~15 min | lethal dose, median [2]: 5 mg | lethal dose, range [2]: 4 to 6 mg | recommended dose [3]: 2 mg/kg | effect on developed force and action potential parameters at steady-state [4]: No significant differences | deaths [5]: Three animals died within 10 min | potency in inducing an arrhythmia, relative to levobupivacaine ([5]; in vivo, iv): slightly more potent | potency in sustaining the arrhythmia, relative to levobupivacaine ([5]; in vivo, iv): more than three times more potent | convulsive dose (inducing ventricular arrhythmias) ([5]; in vivo, iv): 75 mg

CCCCN1CCCC[C@H]1C(=O)Nc1c(C)cccc1C [levobupivacaine, (S)-1-butyl-N-(2,6-dimethylphenyl)-2-piperidinecarboxamide]
duration of sensory/motor block in at least two nerve distributions, range ([6]; 0.5%, 50-60 ml): 14 to 24 h | mean duration of sensory/motor block in at least two nerve distributions ([6]; 0.5%, 50-60 ml): 20 h | sensory and motor blockade in all four peripheral nerve distributions immediately post-operatively ([6]; 0.5%, 50-60 ml): All patients had complete sensory and motor blockade | time to request for supplemental analgesics ([6]; 0.5%, 50-60 ml): 15 h | time to request for supplemental analgesics, range ([6]; 0.5%, 50-60 ml): 9 to 24 h | patients requiring general anaesthesia due to inadequate sensory/motor block at 30 min post-injection ([6]; 0.5%, 50-60 ml, 20 patients): 2 patients | patients with adequate onset of sensory/motor blockade for surgical anaesthesia within 30 min ([6]; 0.5%, 50-60 ml, 20 patients): 18 patients | signs or symptoms of local anaesthetic toxicity ([6]; 3-5 mg/kg): No patient demonstated any subjective or objective signs or symptoms of local anaesthetic toxicity | well tolerated doses for axillary block ([6]; axillary block, patients): 3 to 5 mg/kg | recovery of contractility on washout with drug-free perfusate, vs bupivacaine [7]: significantly greater | duration of total sensory anaesthesia [1]: 551 min | onset of sensory anaesthesia to T10, mean [1]: ~15 min | lethal dose, median [2]: 8 mg | lethal dose, range [2]: 7 to 9 mg | difference in dose vs B to obtain the same degree of QRS prolongation ([2]; at 40 msec QRS prolongation): 25% | difference between L and R in dose for QRS prolongation ([2]; at 50 msec prolongation): insignificant | difference in dose vs B to obtain the same degree of QRS prolongation ([2]; at 90 msec QRS prolongation): 47% | lethal dose higher than that of B [2]: approximately 50% | time to reach Tmax compared with the same dose of racemate ([8]; in vivo): takes longer to reach Tmax | plasma clearance rate compared with bupivacaine ([8]; within 0-4 hours post-administration): faster plasma clearance rate | effect on developed force and action potential parameters at steady-state [4]: No significant differences | recovery of contractility on washout with drug-free perfusate, vs bupivacaine ([4]; guinea-pig papillary muscle, P<0.05): significantly greater | sensory block efficacy and duration compared with bupivacaine [9]: comparable efficacy to bupivacaine | deaths [5]: No animals died | ventricular arrhythmias induced, compared with the same doses of bupivacaine ([5]; in vivo): Significantly fewer, as well as less deleterious | convulsive dose (inducing ventricular arrhythmias) ([5]; in vivo, iv): 100 mg

CCCN1CCCC[C@H]1C(=O)Nc1c(C)cccc1C [ropivacaine, reference compound]
lethal dose, median [2]: 8 mg | lethal dose, range [2]: 4 to 10 mg | QRS prolongation ([2]; at the 6 mg dose, 100% approximately 60 msec): ≤ 100% | lethal dose higher than that of B [2]: approximately 50% | effect on developed force and action potential parameters at steady-state [4]: No significant differences
